Reference: US12213969B2, “2-spiro-5- and 6-hydroxamic acid indanes as HDAC inhibitors” (Valo Health, Inc., priority 2016, dated 2025)

Each compound was assayed against T1, Full length human recombinant HDAC6 protein (Homo sapiens, UniProt Q9UBN7) (assay: In vitro histone deacetylase assay: enzymatic HDAC6 electrophoretic mobility shift assay). Settings: peptide substrate RHKK(Ac)-NH2 2 μM, enzyme 1 nM, 25° C., 12 concentrations; read-out: HDAC6 activity range (IC50).
T1 construct: made in house
T1 sequence (Q9UBN7 1-1215): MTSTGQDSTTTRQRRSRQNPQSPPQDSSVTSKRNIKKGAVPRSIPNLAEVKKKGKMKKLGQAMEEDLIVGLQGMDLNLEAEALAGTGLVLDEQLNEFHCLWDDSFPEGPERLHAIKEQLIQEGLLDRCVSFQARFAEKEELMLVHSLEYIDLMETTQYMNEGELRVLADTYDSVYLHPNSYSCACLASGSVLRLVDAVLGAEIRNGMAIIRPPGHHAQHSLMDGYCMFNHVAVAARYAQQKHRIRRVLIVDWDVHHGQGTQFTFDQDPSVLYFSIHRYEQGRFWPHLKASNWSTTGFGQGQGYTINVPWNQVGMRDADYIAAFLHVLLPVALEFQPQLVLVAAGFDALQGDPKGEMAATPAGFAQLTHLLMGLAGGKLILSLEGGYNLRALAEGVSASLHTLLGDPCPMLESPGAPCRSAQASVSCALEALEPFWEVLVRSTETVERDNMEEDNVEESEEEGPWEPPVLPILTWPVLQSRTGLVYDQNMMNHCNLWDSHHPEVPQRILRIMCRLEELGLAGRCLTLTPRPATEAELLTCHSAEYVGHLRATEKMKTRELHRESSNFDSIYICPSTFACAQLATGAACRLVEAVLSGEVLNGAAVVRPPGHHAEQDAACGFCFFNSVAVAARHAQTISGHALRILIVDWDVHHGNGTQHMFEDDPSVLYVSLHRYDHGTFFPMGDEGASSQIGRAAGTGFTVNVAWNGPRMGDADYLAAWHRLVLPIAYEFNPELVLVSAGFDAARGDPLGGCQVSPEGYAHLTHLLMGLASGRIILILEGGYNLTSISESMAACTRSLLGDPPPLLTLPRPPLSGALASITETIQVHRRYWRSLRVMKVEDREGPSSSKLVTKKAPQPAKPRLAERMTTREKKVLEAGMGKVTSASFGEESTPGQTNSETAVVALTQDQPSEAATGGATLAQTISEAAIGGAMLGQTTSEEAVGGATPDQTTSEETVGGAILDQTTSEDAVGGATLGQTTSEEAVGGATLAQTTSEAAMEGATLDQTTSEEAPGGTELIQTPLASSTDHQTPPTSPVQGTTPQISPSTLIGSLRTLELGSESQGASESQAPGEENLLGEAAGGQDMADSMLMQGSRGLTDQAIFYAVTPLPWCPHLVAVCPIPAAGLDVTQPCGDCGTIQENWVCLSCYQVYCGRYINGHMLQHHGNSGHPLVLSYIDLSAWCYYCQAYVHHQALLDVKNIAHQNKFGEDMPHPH
Format: biochemical
Protocol: The enzymatic HDAC6 assay was performed using electrophoretic mobility shift assay. Full length human recombinant HDAC6 protein was expressed in baculoviral system and purified by affinity chromatography. The enzymatic reactions were assembled in 384 well plates in a total volume of 25 μL in a reaction buffer composing: 100 mM HEPES, pH 7.5, 25 mM KCl, 0.1% bovine serum albumin, 0.01% Triton X-100, 1% DMSO (from compounds) 2 μM of the fluorescently labeled peptide substrate and enzyme. The enzyme was added at a final concentration of 1 nM. The peptide substrate RHKK(Ac)-NH2 was used. The compounds were tested at 12 concentrations spaced by 3× dilution intervals. Negative control samples (0%-inhibition in the absence of inhibitor) and positive control samples (100%-inhibition) were assembled in replicates of four in each assay plate. The reactions were incubated at 25° C. and quenched by the addition of 45 μL of termination buffer (100 mM HEPES, pH 7.5, 0.01% Triton X-100, 0.05% SDS).
The terminated assay plates were analyzed on LabChip® 3000 microfluidic electrophoresis instrument (Perkin Elmer/Caliper Life Sciences). The fluorescence intensity of the electrophoretically separated de-acetylated product and substrate peptide was measured. Activity in each sample was determined as the product to sum ratio (PSR): P/(S+P), where P is the peak height of the product peptide and S is the peak height of the substrate peptide. Percent inhibition (Pinh) is determined using the following equation:
Pinh=(PSR0%−PSRinh)/(PSR0%−PSR100%)*100, where PSRinh is the product sum ratio in the presence of inhibitor, PSR0% is the average product sum ration in the absence of inhibitor and PSR100% is the average product sum ratio in 100%-inhibition control samples. The IC50 values of inhibitors were determined by fitting the %-inhibition curves with 4 parameter dose-response model using XLfit 4 software.
As set forth in Table-7, below, IC50 values are defined as follows: IC50≤0.01 μM (+++); IC50>0.01 μM and ≤0.05 μM (++); IC50>0.05 μM (+).

Row | SMILES | IC50 [nM]
1 | O=C(NO)c1ccc2c(c1)C[C@]1(CCN(c3ccc(F)cc3)C1=O)C2 [Compound I-16, (S)-1′-(4-fluorophenyl)-N-hydroxy-2′-oxo-1,3-dihydrospiro[indene-2,3′-pyrrolidine]-5-carboxamide] | 10 to 50
2 | O=C(NO)c1ccc2c(c1)C[C@]1(CCN(c3ccccn3)C1=O)C2 [Compound I-20, (S)—N-hydroxy-2′-oxo-1′-(pyridin-2-yl)-1,3-dihydrospiro[indene-2,3′-pyrrolidine]-5-carboxamide] | 10 to 50
3 | O=C(NO)c1ccc2c(c1)C[C@@]1(CCN(c3cccnc3)C1=O)C2 [Compound I-17, (R)—N-hydroxy-2′-oxo-1′-(pyridin-3-yl)-1,3-dihydrospiro[indene-2,3′-pyrrolidine]-5-carboxamide] | ≤ 10
4 | O=C(NO)c1ccc2c(c1)C[C@@]1(CCN(Cc3cccnc3)C1=O)C2 [Compound I-23, (R)—N-hydroxy-2′-oxo-1′-(pyridin-3-ylmethyl)-1,3-dihydrospiro[indene-2,3′-pyrrolidine]-5-carboxamide] | 10 to 50
5 | O=C(NO)c1ccc2c(c1)C[C@]1(CCN(Cc3ccccc3)C1=O)C2 [Compound I-12, (S)-1′-benzyl-N-hydroxy-2′-oxo-1,3-dihydrospiro[indene-2,3′-pyrrolidine]-5-carboxamide] | 10 to 50
6 | O=C(NO)c1ccc2c(c1)C[C@@]1(CCCN(Cc3ccccc3)C1=O)C2 [Compound I-34, (R)-1′-benzyl-N-hydroxy-2′-oxo-1,3-dihydrospiro[indene-2,3′-piperidine]-5-carboxamide] | ≤ 10

Other lines, results leading:

Row | IC50 [nM] | SMILES
7 | > 50 | CCN1CC[C@@]2(Cc3ccc(C(=O)NO)cc3C2)C1=O [Compound I-6, (S)-1′-ethyl-N-hydroxy-2′-oxo-1,3-dihydrospiro[indene-2,3′-pyrrolidine]-5-carboxamide]
8 | 10 to 50 | CN1CCC[C@]2(Cc3ccc(C(=O)NO)cc3C2)C1=O [Compound I-32, (R)—N-hydroxy-1′-methyl-2′-oxo-1,3-dihydrospiro[indene-2,3′-piperidine]-5-carboxamide]
9 | 10 to 50 | CN1CCC[C@@]2(Cc3ccc(C(=O)NO)cc3C2)C1=O [Compound I-33, (S)—N-hydroxy-1′-methyl-2′-oxo-1,3-dihydrospiro[indene-2,3′-piperidine]-5-carboxamide]
